Data from patent publication US11427558B1, “Indazoles and azaindazoles as LRRK2 inhibitors” (ESCAPE Bio, Inc., priority 2019, dated 2022).
pIC50: −log10 of the molar value.

Key:
[1] = molecular target: Recombinant wild type LRRK2 protein (Homo sapiens (Human), UniProt Q5S007); assay: LRRK2 kinase activity, LanthaScreen TR-FRET assay (wild type); assay type: biochemical; details: LRRKtide 400 nM, 25 μM ATP, 60 min; read-out: LRRK2 WT IC50
Outline: (§1)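 Recombinant human wild-type or G2019S LRRK2 phosphorylated fluorescein-labelled LRRKtide (ERM-based) with ATP and serially diluted compound for 60 min at room temperature.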

[2] = molecular target: Recombinant G2019S-LRRK2 protein (Homo sapiens (Human), UniProt Q5S007, G2019S); assay: LRRK2 kinase activity, LanthaScreen TR-FRET assay (G2019S); assay type: biochemical; details: LRRKtide 400 nM, 25 μM ATP, 60 min
Chain of Recombinant G2019S-LRRK2 protein (Q5S007 whole entry G2019S): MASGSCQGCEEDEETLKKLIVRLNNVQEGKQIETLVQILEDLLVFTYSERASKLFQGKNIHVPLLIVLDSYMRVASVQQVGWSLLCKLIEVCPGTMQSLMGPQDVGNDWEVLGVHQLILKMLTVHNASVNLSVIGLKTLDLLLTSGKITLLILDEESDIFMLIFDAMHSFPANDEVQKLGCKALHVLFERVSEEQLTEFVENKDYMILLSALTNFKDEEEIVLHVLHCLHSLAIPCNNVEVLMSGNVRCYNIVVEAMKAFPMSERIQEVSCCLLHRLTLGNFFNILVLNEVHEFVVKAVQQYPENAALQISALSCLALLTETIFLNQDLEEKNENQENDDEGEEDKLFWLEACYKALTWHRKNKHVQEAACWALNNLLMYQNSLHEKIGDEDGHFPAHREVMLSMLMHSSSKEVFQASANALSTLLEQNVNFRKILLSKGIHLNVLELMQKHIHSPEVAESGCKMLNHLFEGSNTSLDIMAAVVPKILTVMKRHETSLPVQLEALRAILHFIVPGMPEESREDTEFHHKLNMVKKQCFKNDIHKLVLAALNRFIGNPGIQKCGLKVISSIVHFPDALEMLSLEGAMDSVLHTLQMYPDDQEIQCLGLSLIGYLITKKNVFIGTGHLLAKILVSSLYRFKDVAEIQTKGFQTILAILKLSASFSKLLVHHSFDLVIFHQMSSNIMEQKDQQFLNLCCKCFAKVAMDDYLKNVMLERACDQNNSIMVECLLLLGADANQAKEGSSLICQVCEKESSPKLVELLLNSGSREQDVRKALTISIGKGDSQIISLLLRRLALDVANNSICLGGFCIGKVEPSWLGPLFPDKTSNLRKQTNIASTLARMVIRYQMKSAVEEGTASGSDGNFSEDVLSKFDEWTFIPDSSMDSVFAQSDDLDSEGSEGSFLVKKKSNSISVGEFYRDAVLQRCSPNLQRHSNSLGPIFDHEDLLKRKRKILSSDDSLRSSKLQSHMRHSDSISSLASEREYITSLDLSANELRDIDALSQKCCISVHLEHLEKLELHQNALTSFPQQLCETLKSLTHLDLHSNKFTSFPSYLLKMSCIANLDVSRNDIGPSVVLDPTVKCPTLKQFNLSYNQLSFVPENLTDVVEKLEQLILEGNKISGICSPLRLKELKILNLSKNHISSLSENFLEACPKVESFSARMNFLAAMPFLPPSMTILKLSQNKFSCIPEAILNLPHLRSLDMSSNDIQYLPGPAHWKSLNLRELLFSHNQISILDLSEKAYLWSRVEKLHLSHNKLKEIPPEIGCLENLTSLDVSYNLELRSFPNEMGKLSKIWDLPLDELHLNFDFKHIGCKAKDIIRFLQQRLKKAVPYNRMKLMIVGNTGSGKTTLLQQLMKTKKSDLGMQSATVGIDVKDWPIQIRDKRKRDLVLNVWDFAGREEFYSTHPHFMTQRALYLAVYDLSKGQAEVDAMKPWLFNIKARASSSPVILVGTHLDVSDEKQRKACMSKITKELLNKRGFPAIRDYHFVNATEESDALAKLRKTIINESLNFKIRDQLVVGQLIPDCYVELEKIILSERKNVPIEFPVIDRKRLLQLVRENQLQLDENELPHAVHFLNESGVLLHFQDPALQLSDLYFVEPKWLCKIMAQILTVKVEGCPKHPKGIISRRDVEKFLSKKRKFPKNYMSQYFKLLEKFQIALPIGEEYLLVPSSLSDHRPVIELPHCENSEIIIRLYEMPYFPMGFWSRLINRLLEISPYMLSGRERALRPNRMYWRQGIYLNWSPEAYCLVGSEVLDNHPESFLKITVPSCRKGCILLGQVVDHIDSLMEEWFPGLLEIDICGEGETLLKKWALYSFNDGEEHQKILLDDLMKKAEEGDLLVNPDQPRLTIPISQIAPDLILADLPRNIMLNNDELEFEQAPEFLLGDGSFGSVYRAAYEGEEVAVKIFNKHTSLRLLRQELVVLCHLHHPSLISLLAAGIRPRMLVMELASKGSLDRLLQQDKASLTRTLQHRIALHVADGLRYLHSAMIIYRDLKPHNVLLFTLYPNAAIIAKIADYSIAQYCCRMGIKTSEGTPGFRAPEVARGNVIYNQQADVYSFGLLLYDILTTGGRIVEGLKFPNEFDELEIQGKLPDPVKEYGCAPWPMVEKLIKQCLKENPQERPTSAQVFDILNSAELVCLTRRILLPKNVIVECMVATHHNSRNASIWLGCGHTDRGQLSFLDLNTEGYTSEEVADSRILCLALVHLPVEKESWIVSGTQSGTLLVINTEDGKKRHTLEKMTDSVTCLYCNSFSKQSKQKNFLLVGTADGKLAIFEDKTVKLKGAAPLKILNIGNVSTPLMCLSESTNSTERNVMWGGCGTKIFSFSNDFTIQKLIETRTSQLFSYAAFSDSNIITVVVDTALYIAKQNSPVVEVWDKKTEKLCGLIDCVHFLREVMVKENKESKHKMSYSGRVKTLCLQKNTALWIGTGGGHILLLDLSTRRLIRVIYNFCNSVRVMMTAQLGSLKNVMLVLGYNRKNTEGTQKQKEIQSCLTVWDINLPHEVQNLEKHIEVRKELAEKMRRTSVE
Outline: as §1

Chain of Recombinant wild type LRRK2 protein (Q5S007 whole entry): as the sequence (Q5S007 whole entry G2019S) above, with S2019G counted along it

Structure (SMILES) | pIC50 [1] | pIC50 [2]
Cc1cc(C#N)cnc1C(=O)Nc1cc(F)c2[nH]nc(-c3ccoc3)c2c1 [Example 143, 5-Cyano-N-(7-fluoro-3-(furan-3-yl)-1H-indazol-5-yl)-3-methylpicolinamide] | 6.00 to 7.00 | > 7.00
N#Cc1ccnc(C(=O)Nc2ccc3[nH]nc(-c4ccoc4)c3c2)c1Cl [Example 144, 3-Chloro-4-cyano-N-(3-(furan-3-yl)-1H-indazol-5-yl)picolinamide] | > 7.00 | > 7.00
Cc1nc(C#N)cnc1C(=O)Nc1ccc2[nH]nc(-c3ccoc3)c2c1 [Example 145, 5-Cyano-N-(3-(furan-3-yl)-1H-indazol-5-yl)-3-methylpyrazine-2-carboxamide] | > 7.00 | > 7.00
Cc1cc(C#N)cnc1C(=O)Nc1ccc2[nH]nc(-c3cnoc3)c2c1 [Example 146, 5-Cyano-N-(3-(isoxazol-4-yl)-1H-indazol-5-yl)-3-methylpicolinamide] | 6.00 to 7.00 | > 7.00
Cc1ncc(C#N)nc1C(=O)Nc1ccc2[nH]nc(-c3ccoc3)c2c1 [Example 147, 6-Cyano-N-(3-(furan-3-yl)-1H-indazol-5-yl)-3-methylpyrazine-2-carboxamide] | > 7.00 | > 7.00
Cc1ccc(C#N)nc1C(=O)Nc1ccc2[nH]nc(-c3ccoc3)c2c1 [Example 148, 6-Cyano-N-(3-(furan-3-yl)-1H-indazol-5-yl)-3-methylpicolinamide] | > 7.00 | > 7.00
CCc1c(C#N)ccnc1C(=O)Nc1ccc2[nH]nc(-c3ccoc3)c2c1 [Example 149, 4-Cyano-3-ethyl-N-(3-(furan-3-yl)-1H-indazol-5-yl)picolinamide] | 6.00 to 7.00 | > 7.00
C#Cc1cc(C#N)cnc1C(=O)Nc1ccc2[nH]nc(-c3ccoc3)c2c1 [Example 150] | 6.00 to 7.00 | 6.00 to 7.00
Cc1cc(C#N)cnc1C(=O)Nc1ccc2[nH]nc(-c3ccc(=O)n(C)c3)c2c1 [Example 151, 5-Cyano-3-methyl-N-(3-(1-methyl-6-oxo-1,6-dihydropyridin-3-yl)-1H-indazol-5-yl)picolinamide] | 6.00 to 7.00 | > 7.00
Cc1cc(C#N)cnc1C(=O)Nc1ccc2[nH]nc(-c3ccn(C)c(=O)c3)c2c1 [Example 152, 5-cyano-3-methyl-N-(3-(1-methyl-2-oxo-1,2-dihydropyridin-4-yl)-1H-indazol-5-yl)picolinamide] | 5.00 to 6.00 | 6.00 to 7.00
Cc1cc(C#N)cnc1C(=O)Nc1ccc2[nH]nc(-c3ccn(C)n3)c2c1 [Example 153, 5-Cyano-3-methyl-N-(3-(1-methyl-1H-pyrazol-3-yl)-1H-indazol-5-yl)picolinamide] | 5.00 to 6.00 | 6.00 to 7.00
N#Cc1cnc(C(=O)Nc2ccc3[nH]nc(-c4ccoc4)c3c2)c(O)c1 [Example 154, 5-Cyano-N-(3-(furan-3-yl)-1H-indazol-5-yl)-3-hydroxypicolinamide] | 6.00 to 7.00 | > 7.00
Cc1cc(C#N)cnc1C(=O)Nc1cc2c(-c3ccoc3)n[nH]c2cn1 [Example 155] | 5.00 to 6.00 | > 7.00
Cc1cc(C#N)cnc1C(=O)Nc1ccc2[nH]nc(-c3cscn3)c2c1 [Example 156, 5-Cyano-3-methyl-N-(3-(thiazol-4-yl)-1H-indazol-5-yl)picolinamide] | 6.00 to 7.00 | 6.00 to 7.00
Cc1c(C#N)cnc(C(=O)Nc2ccc3[nH]nc(-c4cnn(C(F)F)c4)c3c2)c1C [Example 157, 5-Cyano-N-(3-(1-(difluoromethyl)-1H-pyrazol-4-yl)-1H-indazol-5-yl)-3,4-dimethylpicolinamide] | > 7.00 | > 7.00
Cc1c(C#N)cnc(C(=O)Nc2ccc3[nH]nc(-c4cnco4)c3c2)c1C [Example 158, 5-Cyano-3,4-dimethyl-N-(3-(oxazol-5-yl)-1H-indazol-5-yl)picolinamide] | > 7.00 | > 7.00
COc1cc(-c2n[nH]c3ccc(NC(=O)c4ncc(C#N)c(C)c4C)cc23)ccn1 [Example 159, 5-Cyano-N-(3-(2-methoxypyridin-4-yl)-1H-indazol-5-yl)-3,4-dimethylpicolinamide] | > 7.00 | > 7.00
Cc1cc(C#N)cnc1C(=O)Nc1ccc2[nH]nc(-c3cnsc3)c2c1 [Example 160, 5-Cyano-N-(3-(isothiazol-4-yl)-1H-indazol-5-yl)-3-methylpicolinamide] | > 7.00 | > 7.00
Cc1cc(C#N)cnc1C(=O)Nc1ncc2[nH]nc(-c3ccoc3)c2n1 [Example 161, 5-Cyano-N-(3-(furan-3-yl)-1H-pyrazolo[4,3-d]pyrimidin-5-yl)-3-methylpicolinamide] | 5.00 to 6.00 | 6.00 to 7.00

Structure (SMILES) | pIC50 [1] | pIC50 [2]
Cc1cc(C#N)nnc1C(=O)Nc1ccc2[nH]nc(-c3ccoc3)c2c1 [Example 162, 6-Cyano-N-(3-(furan-3-yl)-1H-indazol-5-yl)-4-methylpyridazine-3-carboxamide] | 6.00 to 7.00 | > 7.00
N#Cc1ccc(F)c(C(=O)Nc2ccc3[nH]nc(-c4cnn(C(F)F)c4)c3c2)c1F [Example 163, 3-Cyano-N-(3-(1-(difluoromethyl)-1H-pyrazol-4-yl)-1H-indazol-5-yl)-2,6-difluorobenzamide] | > 7.00 | > 7.00
COc1c(C#N)cccc1C(=O)Nc1ccc2[nH]nc(-c3cnn(C(F)F)c3)c2c1 [Example 164, 3-Cyano-N-(3-(1-(difluoromethyl)-1H-pyrazol-4-yl)-1H-indazol-5-yl)-2-methoxybenzamide] | > 7.00 | > 7.00
N#Cc1cccc(C(=O)Nc2ccc3[nH]nc(-c4cnn(C(F)F)c4)c3c2)c1F [Example 167, 3-Cyano-N-(3-(1-(difluoromethyl)-1H-pyrazol-4-yl)-1H-indazol-5-yl)-2-fluorobenzamide] | > 7.00 | > 7.00
Cc1c(C#N)cnc(C(=O)Nc2ccc3[nH]nc(-c4cnoc4)c3c2)c1C [Example 168, 5-Cyano-N-(3-(isoxazol-4-yl)-1H-indazol-5-yl)-3,4-dimethylpicolinamide] | > 7.00 | > 7.00
Cc1c(C#N)cnc(C(=O)Nc2ccc3[nH]nc(-c4cnn(C(F)(F)F)c4)c3c2)c1C [Example 169, 5-Cyano-3,4-dimethyl-N-(3-(1-(trifluoromethyl)-1H-pyrazol-4-yl)-1H-indazol-5-yl)picolinamide] | > 7.00 | > 7.00
COc1cc(-c2n[nH]c3ccc(NC(=O)c4ccnc(C#N)c4F)cc23)ccn1 [Example 170, 2-Cyano-3-fluoro-N-(3-(2-methoxypyridin-4-yl)-1H-indazol-5-yl)isonicotinamide] | 6.00 to 7.00 | > 7.00
Cc1c(C#N)cnc(C(=O)Nc2ccc3[nH]nc(-c4cncc(Cl)c4)c3c2)c1C [Example 171, N-(3-(5-Chloropyridin-3-yl)-1H-indazol-5-yl)-5-cyano-3,4-dimethylpicolinamide] | > 7.00 | > 7.00
Cc1c(C#N)cnc(C(=O)Nc2ccc3[nH]nc(-c4cnn(CF)c4)c3c2)c1C [Example 172, 5-Cyano-N-(3-(1-(fluoromethyl)-1H-pyrazol-4-yl)-1H-indazol-5-yl)-3,4-dimethylpicolinamide] | > 7.00 | > 7.00
N#Cc1cccc(C(=O)Nc2ccc3[nH]nc(-c4ccoc4)c3c2)c1C(F)(F)F [Example 173, 3-Cyano-N-(3-(furan-3-yl)-1H-indazol-5-yl)-2-(trifluoromethyl)benzamide] | > 7.00 | > 7.00
Cc1ncc(-c2n[nH]c3ccc(NC(=O)c4ncc(C#N)c(C)c4C)cc23)o1 [Example 174, 5-Cyano-3,4-dimethyl-N-(3-(2-methyloxazol-5-yl)-1H-indazol-5-yl)picolinamide] | > 7.00 | > 7.00
Cc1c(C(=O)Nc2ccc3[nH]nc(-c4cnn(C(F)F)c4)c3c2)nc(Cl)c(C#N)c1C [Example 175, 6-Chloro-5-cyano-N-(3-(1-(difluoromethyl)-1H-pyrazol-4-yl)-1H-indazol-5-yl)-3,4-dimethylpicolinamide] | > 7.00 | > 7.00
COc1c(C#N)cccc1C(=O)Nc1ccc2[nH]nc(-c3cnco3)c2c1 [Example 176, 3-Cyano-2-methoxy-N-(3-(oxazol-5-yl)-1H-indazol-5-yl)benzamide] | > 7.00 | > 7.00
Cc1ccc(C#N)c(F)c1C(=O)Nc1ccc2[nH]nc(-c3cnn(C(F)F)c3)c2c1 [Example 177, 3-Cyano-N-(3-(1-(difluoromethyl)-1H-pyrazol-4-yl)-1H-indazol-5-yl)-2-fluoro-6-methylbenzamide] | > 7.00 | > 7.00
COc1cc(-c2n[nH]c3ccc(NC(=O)c4ncc(C#N)cc4C(F)(F)F)cc23)ccn1 [Example 178, 5-Cyano-N-(3-(2-methoxypyridin-4-yl)-1H-indazol-5-yl)-3-(trifluoromethyl)picolinamide] | > 7.00 | > 7.00
Cc1c(C(=O)Nc2ccc3[nH]nc(-c4ccoc4)c3c2)noc1C#N [Example 179, 5-Cyano-N-(3-(furan-3-yl)-1H-indazol-5-yl)-4-methylisoxazole-3-carboxamide] | > 7.00 | > 7.00
Cc1c(C#N)noc1C(=O)Nc1ccc2[nH]nc(-c3ccoc3)c2c1 [Example 180, 3-Cyano-N-(3-(furan-3-yl)-1H-indazol-5-yl)-4-methylisoxazole-5-carboxamide] | 6.00 to 7.00 | 6.00 to 7.00
Cc1c(C#N)cnc(C(=O)Nc2ccc3[nH]nc(-c4cnc(C(C)C)o4)c3c2)c1C [Example 181, 5-Cyano-N-(3-(2-isopropyloxazol-5-yl)-1H-indazol-5-yl)-3,4-dimethylpicolinamide] | > 7.00 | > 7.00
Cc1cccc(-c2n[nH]c3ccc(NC(=O)c4ncc(C#N)c(C)c4C)cc23)n1 [Example 182, 5-Cyano-3,4-dimethyl-N-(3-(6-methylpyridin-2-yl)-1H-indazol-5-yl)picolinamide] | 6.00 to 7.00 | > 7.00
